These are literature values, as cited in US11248001B2, “PCSK9 inhibitors and methods of use thereof” (ASTRAZENECA AB, priority 2019, dated 2022).

For the data set the following is noted: clinical trials, patients.

On to alirocumab, for which the “decrease in LDL levels” value is given as “about 50%”.

B1: evolocumab (antibody, chains of the INN, looked up, V domains shown)
VH: EVQLVQSGAEVKKPGASVKVSCKASGYTLTSYGISWVRQAPGQGLEWMGWVSFYNGNTNYAQKLQGRGTMTTDPSTSTAYMELRSLRSDDTAVYYCARGYGMDVWGQGTTVTVSS
VL: ESALTQPASVSGSPGQSITISCTGTSSDVGGYNSVSWYQQHPGKAPKLMIYEVSNRPSGVSNRFSGSKSGNTASLTISGLQAEDEADYYCNSYTSTSMVFGGGTKLTVL
For the molecule B1, the “decrease in LDL levels” value is reported as 60-75%.
